The results in this text go back to ChEMBL document CHEMBL1201862, “PubChem BioAssay data set” (2004).

What all share (test): growth of human tumour cells (NCI), 48 h
Test [1] has as its system A498.
In test [2] the test system is DU-145.
Test [3] deals with HCC 2998.
Test [4] concerns HOP-62.
The subject of test [5] is HOP-92.
Test [6] relates to HT-29.
For test [7], the system named is Hs-578T.
The subject of test [8] is M14.
The subject of test [9] is MCF7.
Test [10] relates to Malme-3M.
The test system of test [11] is NCI/ADR-RES.
The subject of test [12] is OVCAR-5.
In test [13] the test system is SK-MEL-28.
Test [14] relates to SK-MEL-2.
In test [15] the test system is SK-OV-3.
Test [16] relates to SR.
Test [17] deals with T47D.
Test [18] deals with U-251.
In test [19] the test system is COLO 205.

Molecules are shown by their SMILES. Where “and” joins values, the source holds several entries; their conditions need not be identical. Identical values can stand only once.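 1) Cells in 96-well plates. 2) Compound, 48 h, 5 concentrations. 3) Linear interpolation between surrounding doses. 4) Unreached endpoint = highest concentration. GI50 = concentration required for 50% inhibition of growth.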 Calls of active or inactive are those of the source. Rule as the data show it: active = GI50 up to about 1.1 µM and inactive = higher.

Turning to `COc1cc(N(C)C)c(OC)cc1C=C1C=CC=C1`, the GI50 was > 100 µM (inactive) in test [1]; > 100 µM (inactive) in [2]; > 100 µM (inactive) in [3]; > 100 µM (inactive) in test [4]; 61.8 µM (inactive) in test [5]; 60.4 µM (inactive) in test [6]. Also, the GI50 in test [7] was > 100 µM (inactive); in [8], > 100 µM (inactive); in [9] it was > 100 µM (inactive); in [10] it was > 100 µM (inactive); in [11] it was 74.6 µM (inactive); in test [12], > 100 µM (inactive). In addition, the GI50 is > 100 µM (inactive) in test [13]; > 100 µM (inactive) in [14]; > 100 µM (inactive) in test [15]; 61.2 µM (inactive) in [16]; 41.3 µM (inactive) in test [17]; > 100 µM (inactive) in test [18].
For `S=C(N/N=C(\c1ccccc1)c1ccccn1)NC1CCCCC1`, the GI50 is > 100 µM (inactive) in [1]; 0.543 µM (active) in [19]; 29.3 µM (inactive) in test [2]; > 61.4 µM (inactive) in test [3]; 12.2 µM (inactive) in test [4]; > 100 µM (inactive) in test [5]. In addition, the GI50 in test [6] was 0.274 µM (active); in test [7], > 35 µM (inactive); in test [8], 1.16 µM (inactive); in test [9], 0.433 µM (active); in test [10], 1.32 µM (inactive); in [11], 0.423 µM (active). For the same compound, the GI50 is > 88.1 µM (inactive) in test [12]; 46.1 µM (inactive) in [13]; > 94.6 µM (inactive) in test [14]; 11.5 µM (inactive) in test [15]; > 26.1 µM (inactive) in test [16]; 3.48 µM (inactive) in test [17]. Further, the GI50 in test [18] was 0.979 µM (active).
For `CCNC(=S)/N=c1\sc(NCC)nc2sc3c(c12)CCN(N1CCc2c(sc4nc(NCC)s/c(=N\C(=S)NCC)c24)C1)C3`, the GI50 in [1] was 54 µM (inactive); in test [19] it was 57.4 µM (inactive); in test [2] it was 77.8 µM (inactive); in test [3], > 100 µM (inactive); in test [4], 57.3 µM (inactive); in [5], 5.31 µM (inactive). Besides, the GI50 in test [6] is 41.1 µM (inactive); in [7], > 100 µM (inactive); in test [8], 46.5 µM (inactive); in [9] it was > 100 µM (inactive); in test [10] it was > 100 µM (inactive); in [11] it was > 100 µM (inactive). For the same compound, the GI50 in test [12] is > 100 µM (inactive); in test [13], 92 µM (inactive); in test [14], > 100 µM (inactive); in test [15], > 100 µM (inactive); in test [16], 30.5 µM (inactive); in [17] it was 42.4 µM (inactive). In addition, the GI50 in [18] is 33.3 µM (inactive).
In the case of `CC1=NN(c2ccc(C)cc2)C2(C1)SCC(=O)N2c1nc2ccccc2s1` (stereo not drawn), the GI50 in test [1] is 19.6 µM (inactive); in test [19], 22.7 µM (inactive); in [2] it was 29.5 µM (inactive); in test [3], 22.9 µM (inactive); in test [4], 16.9 µM (inactive); in test [5], 49.3 µM (inactive). For the same compound, the GI50 was 30.5 µM (inactive) in test [6]; 32.1 µM (inactive) in test [7]; 22.7 µM (inactive) in test [8]; 4.7 µM (inactive) in test [9]; 23.5 µM (inactive) in test [10]; 16.2 µM (inactive) in test [11]. The GI50 in [12] is 37.2 µM (inactive); in [13], 24.2 µM (inactive); in test [14], 21.6 µM (inactive); in test [15] it was 22.1 µM (inactive); in test [16] it was 7.11 µM (inactive); in [17] it was 11.8 µM (inactive). In addition, the GI50 in test [18] was 16.6 µM (inactive).
On to `NCCOCC(N)C(=O)O` (stereo not drawn), for which the GI50 in test [1], in test [19], in test [2], in test [3], in test [4] and in test [5] was > 100 µM (inactive) in each case. In addition, the GI50 in [6], in test [7], in test [8], in [9], in test [10] and in [11] was > 100 µM (inactive) throughout. The GI50 is > 100 µM (inactive) in test [12]; > 100 µM (inactive) in test [13]; > 100 µM (inactive) in test [14]; > 100 µM (inactive) in test [15]; > 100 µM (inactive) and 54.8 µM (inactive) in test [16]; > 100 µM (inactive) in [17]. In addition, the GI50 in [18] was > 100 µM (inactive).
On to `O=C(N1CCN(c2ccccc2)CC1)N(C(=O)C1(c2ccc(Cl)cc2)CCCC1)S(=O)(=O)c1ccccc1`, for which the GI50 in [1] was < 0.01 µM (active); in [19], 24.7 µM (inactive); in [2], 38.5 µM (inactive); in [3], 23.9 µM (inactive); in test [4] it was 29.1 µM (inactive); in [5] it was 32.8 µM (inactive). Also, the GI50 was 27.9 µM (inactive) in test [6]; 29.8 µM (inactive) in [7]; 21.1 µM (inactive) in test [8]; 26.9 µM (inactive) in test [9]; 26.4 µM (inactive) in test [10]; 23.7 µM (inactive) in test [11]. The GI50 is 24.8 µM (inactive) in test [12]; 40.8 µM (inactive) in test [13]; 19.9 µM (inactive) in [14]; 30 µM (inactive) in [15]; 53.2 µM (inactive) in [16]; 27.7 µM (inactive) in test [17]. Also, the GI50 in test [18] is 21.8 µM (inactive).
For `OC(CC(O)(C(F)(F)Cl)C(F)(F)Cl)c1ccccc1` (stereo not drawn), the GI50 in test [1] is 0.0107 µM (active); in [19] it was > 10 µM (inactive); in test [2], > 10 µM (inactive); in [3], > 10 µM (inactive); in [4] it was > 10 µM (inactive); in test [5] it was > 10 µM (inactive). For the same compound, the GI50 in test [6] was > 10 µM (inactive); in test [7] it was > 10 µM (inactive); in test [8], < 0.001 µM (active); in [9] it was > 10 µM (inactive); in test [10], > 10 µM (inactive); in test [11], > 10 µM (inactive). The GI50 in test [12], in [13], in [14], in test [15], in [16] and in [17] was > 10 µM (inactive) in each case. Also, in test [18], the GI50 was > 10 µM (inactive).
As to `Cc1ccc2[nH]c(=N/c3ccccc3C)/c(=N\c3ccccc3C)[nH]c2c1`, the GI50 was 26.9 µM (inactive) in test [1]; 16.1 µM (inactive) in [19]; 41.1 µM (inactive) in [2]; 23.5 µM (inactive) in test [3]; 40.2 µM (inactive) in [4]; 19.4 µM (inactive) in test [5]. In addition, the GI50 in test [6] is 23 µM (inactive); in test [7], 24.1 µM (inactive); in test [8], 43.8 µM (inactive); in test [9], 77.3 µM (inactive); in test [10], 22.2 µM (inactive); in test [11], 30 µM (inactive). The GI50 in test [12] is 21.5 µM (inactive); in test [13], 64.4 µM (inactive); in [14] it was 12.7 µM (inactive); in test [15] it was 43 µM (inactive); in test [16], > 100 µM (inactive); in test [17] it was 19.3 µM (inactive). Besides, the GI50 in test [18] is 26.1 µM (inactive).
Take `CN(C)CC1=Nc2cccc3cccc(c23)N1`: the GI50 is 14.9 µM (inactive) in test [1]; 2.95 µM (inactive) in test [19]; 17.1 µM (inactive) in test [2]; 17.2 µM (inactive) in test [3]; > 100 µM (inactive) in test [4]; 18.8 µM (inactive) in test [5]. For the same compound, the GI50 in test [6] is 22.8 µM (inactive); in test [7], 34.7 µM (inactive); in test [8], 19.5 µM (inactive); in test [9], 13.1 µM (inactive); in test [10] it was 22 µM (inactive); in test [11], 33.7 µM (inactive). In addition, the GI50 is 17.4 µM (inactive) in test [12]; 22.1 µM (inactive) in test [13]; 17.4 µM (inactive) in [14]; > 100 µM (inactive) in test [15]; 17.9 µM (inactive) in test [16]; 6.11 µM (inactive) in [17]. In addition, in test [18], the GI50 was 16.8 µM (inactive).
Regarding `CC(CCOc1ccc2ccc(=O)oc2c1)C1=CC(=O)C(C)(C)O1` (stereo not drawn), the GI50 is 1.95 µM (inactive) in test [1]; 2.42 µM (inactive) in test [19]; 2.39 µM (inactive) in [2]; 2.67 µM (inactive) in test [3]; 5.12 µM (inactive) in test [4]; 3.56 µM (inactive) in [5]. Moreover, the GI50 is 3.3 µM (inactive) in test [6]; 2.38 µM (inactive) in test [7]; 3.92 µM (inactive) in test [8]; 3.61 µM (inactive) in test [9]; 3.04 µM (inactive) in test [10]; 2.12 µM (inactive) in test [11]. In addition, the GI50 in [12] was 9.27 µM (inactive); in test [13], 2.9 µM (inactive); in [14], 3.37 µM (inactive); in [15], 3.53 µM (inactive); in test [16], 0.612 µM (active); in test [17], 2.02 µM (inactive). In addition, the GI50 in test [18] was 2.69 µM (inactive).
Turning to `Cc1ncc([N+](=O)[O-])n1CCNC(=O)CCCn1cnc([N+](=O)[O-])n1`, the GI50 is > 84.3 µM (inactive) in test [1]; > 100 µM (inactive) in [19]; > 100 µM (inactive) in [2]; > 100 µM (inactive) in test [3]; > 100 µM (inactive) in test [4]; > 100 µM (inactive) in test [5]. The GI50 in test [6], in test [7], in [8], in [9], in test [10] and in test [11] was > 100 µM (inactive) in each case. Also, the GI50 is > 100 µM (inactive) in test [12]; > 100 µM (inactive) in test [13]; > 90.8 µM (inactive) in test [14]; > 100 µM (inactive) in [15]; > 100 µM (inactive) in [16]; > 100 µM (inactive) in [17]. In addition, in test [18], the GI50 is > 100 µM (inactive).
